Laboratory results published in patent publication USRE48097E1, “Cephem compounds, their production and use” (priority 2015, dated 2020).
In brackets after ≈: the same amount, converted by molar mass.

What was measured:
Format in all cases: cell-based
[1] = test system: K. pneumoniae 4104; assay: MIC against K. pneumoniae 4104; settings: K. pneumoniae 4104, KPC-3, TEM-1
Protocol: (§1) As shown, the foregoing composition was tested for minimum inhibitory concentration (MIC, μg/mL) against bacteria listed in Tables 2-3.

[2] = test system: K. pneumoniae 4107; assay: MIC against K. pneumoniae 4107; settings: K. pneumoniae 4107, KPC-2, TEM-1, SHV-11
Protocol: as §1

[3] = test system: S. pneumoniae 2405; assay: MIC against S. pneumoniae 2405; settings: Table 2, S. pneumoniae 2405, Pen S
Procedure, shortened: (§2)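 Values give the minimum inhibitory concentration in μg/mL, determined for the cephem alone or in combination with a β-lactamase inhibitor.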

[4] = test system: S. pneumoniae 2392; assay: MIC against S. pneumoniae 2392; settings: Table 2, S. pneumoniae 2392, Pen R
Procedure, shortened: as §2

[5] = test system: E. cloacae 2689; assay: MIC against E. cloacae 2689; settings: Table 3, E. cloacae 2689, KPC-2
Protocol: as §1

[6] = test system: K. pneumoniae 2713; assay: MIC against K. pneumoniae 2713; settings: Table 3, K. pneumoniae 2713, KPC-3, VIM-1
Protocol: as §1

[7] = test system: K. baumanii 4091; assay: MIC against K. baumanii 4091; settings: Table 2, K. baumanii 4091, OXA-23
Procedure, shortened: as §2

[8] = test system: C. freundii 579; assay: MIC against C. freundii 579; settings: Table 2, C. freundii 579, Caz R, IMP S
Procedure, shortened: as §2

[9] = test system: S. pneumoniae 2406; assay: MIC against S. pneumoniae 2406; settings: Table 2, S. pneumoniae 2406, Pen S
Procedure, shortened: as §2

[10] = test system: E. coli 4101; assay: MIC against E. coli 4101; settings: Table 2, E. coli 4101, CTX-M-14, TEM-1
Procedure, shortened: as §2

[11] = test system: S. pneumoniae 2404; assay: MIC against S. pneumoniae 2404; settings: Table 2, S. pneumoniae 2404, Pen S
Procedure, shortened: as §2

[12] = test system: P. aeruginosa 2686; assay: MIC against P. aeruginosa 2686; settings: Table 3, P. aeruginosa 2686, KPC-2
Protocol: as §1

[13] = test system: E. coli 4103; assay: MIC against E. coli 4103; settings: Table 3, E. coli 4103, KPC-2, TEM-1, CMY-type
Protocol: as §1

[14] = test system: K. baumanii 4094; assay: MIC against K. baumanii 4094; settings: Table 2, K. baumanii 4094, OXA-51
Procedure, shortened: as §2

[15] = test system: E. cloacae 2709; assay: MIC against E. cloacae 2709; settings: Table 3, E. cloacae 2709, KPC-3, VIM-1
Protocol: as §1

[16] = test system: S. aureus 3144; assay: MIC against S. aureus 3144; settings: Table 2, S. aureus 3144, MSSA
Procedure, shortened: as §2

[17] = test system: E. cloacae 2044; assay: MIC against E. cloacae 2044; settings: Table 2, E. cloacae 2044, Caz S, IMP S
Procedure, shortened: as §2

[18] = test system: E. coli 102; assay: MIC against E. coli 102; settings: Table 2, E. coli 102, TEM-1
Procedure, shortened: as §2

[19] = test system: K. pneumoniae 2697; assay: MIC against K. pneumoniae 2697; settings: Table 2, K. pneumoniae 2697, IMP-4
Procedure, shortened: as §2

[20] = test system: E. coli 4102; assay: MIC against E. coli 4102; settings: Table 2, E. coli 4102, CTX-M-14
Procedure, shortened: as §2

[21] = test system: K. pneumoniae 2689; assay: MIC against K. pneumoniae 2689; settings: K. pneumoniae 2689, KPC-2
Protocol: as §1

[22] = test system: S. pneumoniae ATCC 700673; assay: MIC against S. pneumoniae ATCC 700673; settings: Table 2, S. pneumoniae ATCC 700673, Pen R
Procedure, shortened: as §2

[23] = test system: E. coli 4080; assay: MIC against E. coli 4080; settings: Table 2, E. coli 4080, TEM-10
Procedure, shortened: as §2

[24] = Table 2, in combination with NXL-104
[25] = Table 3, in combination with NXL-104

**Q.** What does the source list for `CC(C)(O/N=C(\C(=O)N[C@@H]1C(=O)N2C(C(=O)[O-])=C(C[n+]3ccccc3)CS[C@H]12)c1csc(N)n1)C(=O)O` [CAZ, ceftazidime, reference compound]?
**A.** MIC ([1]; Table 2, alone): 32.00 µg/mL (≈ 58.5 µM); MIC [1, 24]: 8.00 µg/mL; MIC ([1]; Table 3, alone): >32 µg/mL; MIC [1, 25]: 2 µg/mL; MIC ([2]; Table 2, alone): 32.00 µg/mL (≈ 58.5 µM); MIC [2, 24]: 8.00 µg/mL; MIC ([2]; Table 3, alone): >32 µg/mL; MIC [2, 25]: 4 µg/mL; MIC ([3]; alone): 0.25 µg/mL; MIC ([3]; in combination with NXL-104): 0.25 µg/mL; MIC ([4]; alone): 16.00 µg/mL; MIC ([4]; in combination with NXL-104): 16.00 µg/mL; MIC ([5]; alone): >32 µg/mL; MIC ([5]; in combination with NXL-104): 2 µg/mL; MIC ([6]; alone): >32 µg/mL; MIC ([6]; in combination with NXL-104): 8 µg/mL; MIC ([7]; alone): >32 µg/mL; MIC ([7]; in combination with NXL-104): 16.00 µg/mL; MIC ([8]; alone): 4.00 µg/mL; MIC ([8]; in combination with NXL-104): 2.00 µg/mL; MIC ([9]; alone): 0.12 µg/mL; MIC ([9]; in combination with NXL-104): 0.12 µg/mL; MIC ([10]; alone): 0.50 µg/mL; MIC ([10]; in combination with NXL-104): 0.25 µg/mL; MIC ([11]; alone): 32.00 µg/mL; MIC ([11]; in combination with NXL-104): 32.00 µg/mL; MIC ([12]; alone): >32 µg/mL; MIC ([12]; in combination with NXL-104): 16 µg/mL; MIC ([13]; alone): >32 µg/mL; MIC ([13]; in combination with NXL-104): 16 µg/mL; MIC ([14]; alone): >32 µg/mL; MIC ([14]; in combination with NXL-104): 32.00 µg/mL; MIC ([15]; alone): >32 µg/mL; MIC ([15]; in combination with NXL-104): 8 µg/mL; MIC ([16]; alone): 16.00 µg/mL; MIC ([16]; in combination with NXL-104): 16.00 µg/mL; MIC ([17]; alone): 1.00 µg/mL; MIC ([17]; in combination with NXL-104): 0.25 µg/mL; MIC ([18]; alone): 0.12 µg/mL; MIC ([18]; in combination with NXL-104): 0.12 µg/mL; MIC ([19]; alone): 8.00 µg/mL; MIC ([19]; in combination with NXL-104): 2.00 µg/mL; MIC ([20]; alone): 1.00 µg/mL; MIC ([20]; in combination with NXL-104): 0.25 µg/mL; MIC ([21]; Table 2, alone): 32.00 µg/mL (≈ 58.5 µM); MIC [21, 24]: 4.00 µg/mL; MIC ([21]; Table 3, alone): >32 µg/mL; MIC [21, 25]: 4 µg/mL; MIC ([22]; alone): 16.00 µg/mL; MIC ([22]; in combination with NXL-104): 8.00 µg/mL; MIC ([23]; alone): 16.00 µg/mL; MIC ([23]; in combination with NXL-104): 4.00 µg/mL
